# Results reported in patent publication US20040122209A1, “Products for regulating the degradation of collagen and methods for identifying same” (Shriners Hospital For Children, priority 2002, published 2004).
# Legend:
# Assay type in all cases: cell-based
# [1] = test system: MMP-13; assay: ELISA for MMP-13 in conditioned medium of human chondrocytes; details: 48 hours; CB12-II 50 μM, TNF-α 50 ng/ml
# Method: First-passaged normal human chondrocytes isolated by the method described above and cultured at high density (2×10^5 cells/cm^2) were trypsinized and resuspended in Medium A containing 1% FCS at a density of 10^6 cells/ml. Then, 200 μl of the cell suspension was each plated onto round-bottomed 96-well culture plate. On the next day after plating, CB12-II at 50 μM, USP at 50 μM, and TNF-α at 50 ng/ml were added to the culture media, and the culture was maintained for 24-48 hours. Conditioned media were collected and subjected to ELISA assay. The ELISA kits (BIOTRAK) for MMP-1 and MMP-13 were purchased from Amersham Pharmacia Biotech (Piscataway, N.J.). Measurement range was 6.25-100 ng/ml for MMP-1 and 0.094-3 ng/ml for MMP-13. Sensitivity for the assay was 1.7 ng/ml for MMP-1 and 0.7 ng/ml for MMP-13.
# Protein levels of MMP-1 and MMP-13 were also tested by incubating isolated human chondrocytes for 48 hours in high density culture (10^6 cells/ml) with CB12-II, negative control peptide USP, or cytokine TNF-α, as discussed above. MMP-1 and MMP-13 secretion into medium from the cells was measured using ELISA (see FIGS. 9A and 9B).
# [2] = test system: adult bovine articular cartilage; assay: RT-PCR of hypertrophy and degradation genes in bovine articular cartilage explant culture
# Method: Total RNA was isolated from chondrocytes or cartilage explants by the guanidine isothiocyanate procedure according to Chomczynski and Sacchi (Chomczynski, P. et al., Anal. Biochem. 162:156-9 (1987)) with some modifications. Briefly, chondrocytes (1-2×10^6 cells) or cartilage tissue (200-300 mg) were solubilized in solution D (4 M guanidine isothiocyanate, 20 mM sodium acetate/pH 5.2, 0.1 M 2-mercaptoethanol and 0.5% N-lauroylsarcosine). One volume of isopropanol was added to the mixture and all proteins and nucleic acids were precipitated at −20° C. overnight. […] The total RNA pellet was resuspended in diethyl pyrocarbonate-treated (DEPC) water and the amount of total RNA was measured by reading optical density at 260 nm. […]
# One microliter of reverse transcribed total RNA was incubated with 2.5 U of AmpliTaq™ DNA polymerase (Perkin Elmer, Branchburg, N.J.) in 50 mM KCl, 1.5 mM MgCl2, 10 mM Tris-HCl, pH 8.3, 200 μM dNTP mix and 0.5 μmol each of oligonucleotide primers in 50 μl reaction mixture. […] The digital images of the gel were analyzed using NIH 1.60 imaging software to evaluate the pixel intensity of the band of the PCR products. […] The band intensities were determined to be below saturation. […]
# MMP-13 expression was maximal by 12 days. Gene expression was determined by RT-PCR analyses of mRNA in the manner used to detect expression of MMPs and cytokines described elsewhere. […]
# [3] = test system: MMP-13; assay: RT-PCR of MMP-13 mRNA in human chondrocyte culture; details: 24 hours incubation; data not shown
# Text: Isolated normal human chondrocytes were used for chondrocyte cultures, detection of integrin expression by FACScan, and cell attachment assays. The dissected normal human cartilage obtained at autopsy was cut into small cubes 2-4 mm in size. Chondrocytes were isolated as previously described (34), with some modifications. Briefly, the cubes were washed three times with medium (A). Thereafter, the diced cartilage was digested with 0.1% (wt/vol) trypsin (Sigma) and 0.02% (wt/vol) EDTA (Sigma) for 60 minutes (25 ml/10 g wet weight tissue) at 37° C. After washing the cartilage with Medium A containing 10% heat-inactivated fetal calf serum (FCS) to inhibit the trypsin, the digestion was continued in the same medium with serum (50 ml/10 g wet weight tissue) containing 0.2% (wt/vol) collagenase (type IA; Sigma) for 16 h at 37° C. with gentle agitation on a gyrotary shaker. Undigested cartilage was removed by filtration through a layer of nylon mesh (Cell Strainer; Becton Dickinson Labware, NJ). […]
# Total RNA was isolated from chondrocytes or cartilage explants by the guanidine isothiocyanate procedure according to Chomczynski and Sacchi (Chomczynski, P. et al., Anal. Biochem. 162:156-9 (1987)) with some modifications. […] The total RNA pellet was resuspended in diethyl pyrocarbonate-treated (DEPC) water and the amount of total RNA was measured by reading optical density at 260 nm. […]
sequence,measurement,setting,value
ERGPPGPQGARGFPGTPGLPGVK [CB12-II],MMP-13 secretion into medium versus no peptide and negative control peptide (USP),[1],significantly higher
same,time at which MMP-13 expression was maximal,[2],≤ 12 days
same,"expression of genes characteristic of chondrocyte hypertrophy (COLX, MMP-9, TGF-B1, IHH, MMP-13, CBFA1, SOX 9, bFGF, pTHrP, caspase-3, MT1-MMP, IL-1B, MMP-1)",[2]; induction within a 24-48 hr period,rapid induction
same,MMP-13 gene expression (mRNA by RT-PCR),[3],weakly upregulated
